Laboratory results reported in patent publication US9421209B2, “Kinase modulators” (Rhizen Pharmaceuticals SA, priority 2009, dated 2016).

Experiments:
P110 δ/Pi3K δ = P110 δ/Pi3K δ (Homo sapiens, UniProt O00329); assay: Fluorescent (HTRF) determination of PI3K enzyme activity, δ isoform; assay type: biochemical; set-up: inhibition: dose or concentration left out as unconfirmed; settings: for IC50: read-out: P110 δ/ Pi3K δ IC 50 nM
Text: Assay 1: Fluorescent determination of PI3Kinase Kinase enzyme activity
Phosphoinositide 3 kinases (PI3K) belong to a class of lipid kinases that play a critical role in the regulation of several key cellular processes. The PI3K are capable of phosphorylating the 3-hydroxy position of phosphoinositols thereby generating second messengers involved in downstream signalling events. The homogenous time resolved fluorescence (HTRF) assay allows detection of 3,4,5-triphosphate (PIP3) formed as a result of phosphorylation of phosphotidylinositol 4,5-biphosphate (PIP2) by PI3K isoforms such as α, β, γ or δ.
PI3K isoform activity for α, β, γ or δ was determined using a PI3K human HTRF™ Assay Kit (Millipore, Billerica, Mass.) with modifications. All incubations were carried out at room temperature. […] After the initial incubation, 5 μl/well of 400 μM ATP was added and incubated for an additional 30 minutes. Reaction was terminated by adding 5 μl/well stop solution (Millipore, Billerica, Mass.). Five microliters of detection mix (Millipore, Billerica, Mass.) were then added to each well and was incubated for 6-18 h in the dark. […] Data were analyzed using Graphpad Prism (Graphpad software; San Diego Calif.) for IC50 determination. Percent inhibition was calculated based on the values for the blank and enzyme controls.

Chain of P110 δ/Pi3K δ (O00329 whole entry, canonical isoform): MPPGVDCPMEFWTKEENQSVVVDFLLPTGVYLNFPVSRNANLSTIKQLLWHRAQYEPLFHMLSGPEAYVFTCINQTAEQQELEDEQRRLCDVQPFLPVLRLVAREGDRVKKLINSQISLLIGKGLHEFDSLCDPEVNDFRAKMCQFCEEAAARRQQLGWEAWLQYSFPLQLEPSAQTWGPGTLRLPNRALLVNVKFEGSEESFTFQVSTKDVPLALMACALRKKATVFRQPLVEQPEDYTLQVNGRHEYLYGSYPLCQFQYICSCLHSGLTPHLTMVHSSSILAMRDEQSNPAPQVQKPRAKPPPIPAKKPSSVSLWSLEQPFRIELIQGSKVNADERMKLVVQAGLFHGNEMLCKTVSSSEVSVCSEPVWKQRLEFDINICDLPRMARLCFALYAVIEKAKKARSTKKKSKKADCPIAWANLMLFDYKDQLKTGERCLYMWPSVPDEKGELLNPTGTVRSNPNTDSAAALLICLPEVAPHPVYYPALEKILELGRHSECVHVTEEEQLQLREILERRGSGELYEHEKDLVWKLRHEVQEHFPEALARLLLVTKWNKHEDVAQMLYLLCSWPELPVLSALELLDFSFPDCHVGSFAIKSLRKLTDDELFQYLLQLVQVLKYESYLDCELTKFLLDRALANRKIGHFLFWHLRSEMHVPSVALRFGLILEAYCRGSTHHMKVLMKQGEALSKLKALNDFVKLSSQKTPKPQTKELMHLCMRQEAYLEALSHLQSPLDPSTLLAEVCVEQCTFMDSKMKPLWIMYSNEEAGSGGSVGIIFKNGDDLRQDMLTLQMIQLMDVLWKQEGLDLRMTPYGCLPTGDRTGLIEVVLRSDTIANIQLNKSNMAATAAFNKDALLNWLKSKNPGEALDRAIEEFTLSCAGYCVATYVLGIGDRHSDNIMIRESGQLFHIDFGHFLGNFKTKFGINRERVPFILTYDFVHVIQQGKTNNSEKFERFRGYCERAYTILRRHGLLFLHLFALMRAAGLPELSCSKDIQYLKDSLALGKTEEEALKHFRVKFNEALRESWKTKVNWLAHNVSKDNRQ
Chain of P110 δ/Pi3K δ (P27986 whole entry partner, canonical isoform): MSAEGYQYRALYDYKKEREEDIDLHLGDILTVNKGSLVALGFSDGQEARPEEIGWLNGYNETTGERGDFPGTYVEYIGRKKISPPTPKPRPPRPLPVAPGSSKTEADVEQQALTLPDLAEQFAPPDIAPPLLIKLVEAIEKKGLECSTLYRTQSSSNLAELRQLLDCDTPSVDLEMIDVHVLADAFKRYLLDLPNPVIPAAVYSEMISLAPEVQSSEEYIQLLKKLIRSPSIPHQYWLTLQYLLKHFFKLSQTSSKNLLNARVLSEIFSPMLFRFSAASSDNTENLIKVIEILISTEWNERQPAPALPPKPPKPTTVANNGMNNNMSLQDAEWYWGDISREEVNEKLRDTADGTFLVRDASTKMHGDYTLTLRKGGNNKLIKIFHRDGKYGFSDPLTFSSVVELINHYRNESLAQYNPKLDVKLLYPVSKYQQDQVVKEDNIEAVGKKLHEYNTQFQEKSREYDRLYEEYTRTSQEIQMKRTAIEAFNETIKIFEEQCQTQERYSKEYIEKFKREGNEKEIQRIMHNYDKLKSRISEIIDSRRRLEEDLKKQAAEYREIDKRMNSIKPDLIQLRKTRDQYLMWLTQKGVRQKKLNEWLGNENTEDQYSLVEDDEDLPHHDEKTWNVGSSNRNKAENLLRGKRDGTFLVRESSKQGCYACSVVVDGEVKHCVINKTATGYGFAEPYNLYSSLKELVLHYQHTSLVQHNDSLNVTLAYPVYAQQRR

Compound	melting point	inhibition at 1 µM (P110 δ/Pi3K δ)	inhibition (P110 δ/Pi3K δ)	IC50 (P110 δ/Pi3K δ)
CC(c1oc2ccccc2c(=O)c1-c1cccc(F)c1)n1nc(-c2ccc(N)cc2)c2c(N)ncnc21 (centres unmarked) [Example 107a, 2-(1-(4-amino-3-(4-aminophenyl)-1H-pyrazolo[3,4-d]pyrimidin-1-yl)ethyl)-3-(3-fluorophenyl)-4H-chromen-4-one]	91 to 94 °C		< 50%	
Cc1nn(C)c2cc(-c3nn(C(C)c4oc5ccccc5c(=O)c4-c4cccc(F)c4)c4ncnc(N)c34)ccc12 (centres unmarked) [Example 170, 2-(1-(4-amino-3-(1,3-dimethyl-1H-indazol-6-yl)-1H-pyrazolo[3,4-d]pyrimidin-1-yl)ethyl)-3-(3-fluorophenyl)-4H-chromen-4-one]	270 to 272 °C		50 to 100%	
CC(c1oc2ccccc2c(=O)c1-c1cccc(F)c1)n1nc(-c2cccc(OC(F)F)c2)c2c(N)ncnc21 (centres unmarked) [Example 178, 2-(1-(4-amino-3-(3-(difluoromethoxy)phenyl)-1H-pyrazolo[3,4-d]pyrimidin-1-yl)ethyl)-3-(3-fluorophenyl)-4H-chromen-4-one]	176 to 179 °C		50 to 100%	
CC(c1oc2ccccc2c(=O)c1-c1cccc(F)c1)n1nc(-c2cncnc2)c2c(N)ncnc21 (centres unmarked) [Example 160, 2-(1-(4-amino-3-(pyrimidin-5-yl)-1H-pyrazolo[3,4-d]pyrimidin-1-yl)ethyl)-3-(3-fluorophenyl)-4H-chromen-4-one]	207 to 211 °C			
Nc1ncnc2c1c(CCCO)nn2Cc1oc2ccccc2c(=O)c1-c1ccccc1 [Example 64, 2-((4-amino-3-(3-hydroxypropyl)-1H-pyrazolo[3,4-d]pyrimidin-1-yl)methyl)-3-phenyl-4H-chromen-4-one]	182 to 184 °C	< 50%		
Cc1n[nH]c2cc(-c3nn(C(C)c4oc5ccccc5c(=O)c4-c4ccccc4)c4ncnc(N)c34)ccc12 (centres unmarked) [Example 104, 2-(1-(4-amino-3-(3-methyl-1H-indazol-6-yl)-1H-pyrazolo[3,4-d]pyrimidin-1-yl)ethyl)-3-phenyl-4H-chromen-4-one]	249 to 252 °C		50 to 100%	< 250 nM
COc1cc(-c2nn(C(C)c3oc4ccccc4c(=O)c3-c3cccc(F)c3)c3ncnc(N)c23)ccc1F (centres unmarked) [Example 82, 2-(1-(4-amino-3-(4-fluoro-3-methoxyphenyl)-1H-pyrazolo[3,4-d]pyrimidin-1-yl)ethyl)-3-(3-fluorophenyl)-4H-chromen-4-one]			50 to 100%	
Cl.O=c1c(-c2ccccc2)c(CN2CCOCC2)oc2ccc(Br)cc12	229 to 230 °C			
O=c1c(-c2ccccc2)c(Cn2cnc3ccccc32)oc2ccc(Br)cc12 [Example 5, 2-[(1H-Benzo[d]imidazol-1-yl)methyl]-6-bromo-3-phenyl-4H-chromen-4-one]	192 to 197 °C			
CC(c1oc2ccccc2c(=O)c1-c1cccc(F)c1)n1nc(-c2ccc(F)cc2O)c2c(N)ncnc21 (centres unmarked) [Example 90a, 2-(1-(4-amino-3-(4-fluoro-2-hydroxyphenyl)-1H-pyrazolo[3,4-d]pyrimidin-1-yl)ethyl)-3-(3-fluorophenyl)-4H-chromen-4-one]	235 to 237 °C			

The next lines start with the values.

melting point	inhibition at 1 µM (P110 δ/Pi3K δ)	inhibition (P110 δ/Pi3K δ)	IC50 (P110 δ/Pi3K δ)	Compound
252 to 255 °C	50 to 100%			CC(c1oc2ccc(F)cc2c(=O)c1-c1cccc(F)c1)n1cnc2c(N)ncnc21 (centres unmarked) [Example 50, 2-(1-(6-amino-9H-purin-9-yl)ethyl)-6-fluoro-3-(3-fluorophenyl)-4H-chromen-4-one]
234 to 237 °C	< 50%			CC(Sc1ncnc2[nH]cnc12)c1oc2ccc(Br)cc2c(=O)c1-c1ccccc1 (centres unmarked) [Example 22, 2-(1-(9H-Purin-6-ylthio)ethyl)-6-bromo-3-phenyl-4H-chromen-4-one]
166 to 168 °C		< 50%		CC(c1oc2ccccc2c(=O)c1-c1cccc(F)c1)n1ccc2ncnc(Cl)c21 (centres unmarked) [Example 169, 2-(1-(4-Chloro-5H-pyrrolo[3,2-d]pyrimidin-5-yl)ethyl)-3-(3-fluorophenyl)-4H-chromen-4-one]
155 to 157 °C		50 to 100%		CC(c1oc2ccccc2c(=O)c1-c1cccc(F)c1)n1nc(-c2cccc(OC(F)(F)F)c2)c2c(N)ncnc21 (centres unmarked) [Example 87, 2-(1-(4-amino-3-(3-(trifluoromethoxy)phenyl)-1H-pyrazolo[3,4-d]pyrimidin-1-yl)ethyl)-3-(3-fluorophenyl)-4H-chromen-4-one]
		< 50%		CC(c1oc2ccccc2c(=O)c1-c1cccc(F)c1)n1nc(-c2cc(F)c(O)c(F)c2)c2c(N)ncnc21 (centres unmarked) [Example 126a, 2-(1-(4-amino-3-(3,5-difluoro-4-hydroxyphenyl)-1H-pyrazolo[3,4-d]pyrimidin-1-yl)ethyl)-3-(3-fluorophenyl)-4H-chromen-4-one]
		< 50%		CC(c1oc2ccccc2c(=O)c1-c1cccc(F)c1)n1nc(-c2cnn(C)c2)c2c(N)ncnc21 (centres unmarked) [Example 164, 2-(1-(4-amino-3-(1-methyl-1H-pyrazol-4-yl)-1H-pyrazolo[3,4-d]pyrimidin-1-yl)ethyl)-3-(3-fluorophenyl)-4H-chromen-4-one]
241 to 244 °C				CC(c1oc2ccccc2c(=O)c1-c1cccc(F)c1)n1nc(-c2ccc(F)c(O)c2)c2c(N)ncnc21 (centres unmarked) [Example 82a, 2-(1-(4-amino-3-(4-fluoro-3-hydroxyphenyl)-1H-pyrazolo[3,4-d]pyrimidin-1-yl)ethyl)-3-(3-fluorophenyl)-4H-chromen-4-one]
		50 to 100%	< 250 nM	CC(C)Oc1ccc(-c2nn(C(C)c3oc4ccccc4c(=O)c3-c3cccc(F)c3)c3ncnc(N)c23)cc1F (centres unmarked) [Example 158, 2-(1-(4-amino-3-(3-fluoro-4-isopropoxyphenyl)-1H-pyrazolo[3,4-d]pyrimidin-1-yl)ethyl)-3-(3-fluorophenyl)-4H-chromen-4-one]
232 to 236 °C				Cl.O=c1c(-c2ccc(F)cc2)c(CN2CCOCC2)oc2ccc(Br)cc12
		< 50%		COc1cc(F)ccc1-c1nn(C(C)c2oc3ccccc3c(=O)c2-c2cccc(F)c2)c2ncnc(N)c12 (centres unmarked) [Example 90, 2-(1-(4-amino-3-(4-fluoro-2-methoxyphenyl)-1H-pyrazolo[3,4-d]pyrimidin-1-yl)ethyl)-3-(3-fluorophenyl)-4H-chromen-4-one]
204 to 208 °C				Cc1cccc2c1ncn2Cc1oc2ccccc2c(=O)c1-c1ccccc1 [Example 8, 2-[(4-methyl-1H-benzo[d]imidazol-1-yl)methyl]-3-phenyl-4H-chromen-4-one]
286 to 290 °C				CCOc1ccc2cc(-c3nn(C(C)c4oc5ccccc5c(=O)c4-c4cccc(F)c4)c4ncnc(N)c34)ccc2c1 (centres unmarked) [Example 175, 2-(1-(4-amino-3-(6-ethoxynaphthalen-2-yl)-1H-pyrazolo[3,4-d]pyrimidin-1-yl)ethyl)-3-(3-fluorophenyl)-4H-chromen-4-one]
		50 to 100%		Cc1n[nH]c2cc(-c3nn(Cc4oc5ccccc5c(=O)c4-c4ccccc4)c4ncnc(N)c34)ccc12 [Example 92, 2-((4-amino-3-(3-methyl-1H-indazol-6-yl)-1H-pyrazolo[3,4-d]pyrimidin-1-yl)methyl)-3-phenyl-4H-chromen-4-one]
252 to 255 °C				Cc1ccccc1-c1c(Cn2cnc3c(N)ncnc32)oc2ccc(Br)cc2c1=O [Example 19, 2-[(6-Amino-9H-purin-9-yl)methyl]-6-bromo-3-o-tolyl-4H-chromen-4-one]
